Results reported in patent US8163909B2, “Substituted hydroxyethyl amine compounds as beta-secretase modulators and methods of use” (Amgen Inc., priority 2007, dated 2012).
pIC50: −log10 of the molar value. Like-named read-outs stand apart in the source and are kept apart here.

Tests used:
[1] = molecular target: CYP3A4 (CYP3A) (Homo sapiens, UniProt P08684); assay: in vitro; conditions: microsomes, pH 7.4;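 also: inhibition of CYP3A-mediated 1-hydroxymidazolam formation after 10 min incubation with NADPH, quantified by HPLC MS relative to metabolite produced without test compound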
[2] = molecular target: CYP2D6 (Homo sapiens, UniProt P10635); assay: CYP2D6 inhibition assay (bufuralol, pooled human liver microsomes); conditions: 2D6 IC50, CYP enzyme inhibition
[3] = system: Aβ40 in conditioned medium of cells stably expressing Amyloid Precursor Protein (APP); assay: In vitro BACE cell-based assay (Aβ40 in conditioned medium, sandwich ELISA); conditions: Homo sapiens, HEK cells, read-out: HEK cell assay; for pIC50: HEK293, Table 2;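 as to all read-outs here: compounds added as a dilution series, secreted peptide quantified by europium time-resolved fluorescence readout, potency fitted from percent of control versus compound concentration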
[4] = molecular target: Beta Secretase enzyme (BACE) (Homo sapiens, UniProt P56817); assay: In vitro enzymatic BACE FRET (fluorescence resonance energy transfer) assay; type: biochemical; conditions: read-out: BACE1 FRET assay; for pIC50: Table 2;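 as to all read-outs here: fluorescence read after 1 h with 50 nM quenched peptide substrate spanning the BACE cleavage site, in pH 4.2 acetate buffer containing 10% DMSO and nonionic detergent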
[5] = Microsomal stability assay, rat liver microsomes; conditions: rat liver microsomal data;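 also: rat liver microsomes (0.25 mg/mL) with about 1 µM compound plus 1 mM NADPH, pH 7.4, 37 °C for 30 min, parent left measured by LC-MS/MS against 0 min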
[6] = Microsomal stability assay, human liver microsomes; conditions: human liver microsomal data;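 also: pooled human liver microsomes at 0.25 mg/mL with 1 µM compound and NADPH at 37 °C, pH 7.4, for 30 min, unchanged parent quantified by LC-MS/MS against the 0 min sample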

Chain of CYP2D6 (P10635 whole entry): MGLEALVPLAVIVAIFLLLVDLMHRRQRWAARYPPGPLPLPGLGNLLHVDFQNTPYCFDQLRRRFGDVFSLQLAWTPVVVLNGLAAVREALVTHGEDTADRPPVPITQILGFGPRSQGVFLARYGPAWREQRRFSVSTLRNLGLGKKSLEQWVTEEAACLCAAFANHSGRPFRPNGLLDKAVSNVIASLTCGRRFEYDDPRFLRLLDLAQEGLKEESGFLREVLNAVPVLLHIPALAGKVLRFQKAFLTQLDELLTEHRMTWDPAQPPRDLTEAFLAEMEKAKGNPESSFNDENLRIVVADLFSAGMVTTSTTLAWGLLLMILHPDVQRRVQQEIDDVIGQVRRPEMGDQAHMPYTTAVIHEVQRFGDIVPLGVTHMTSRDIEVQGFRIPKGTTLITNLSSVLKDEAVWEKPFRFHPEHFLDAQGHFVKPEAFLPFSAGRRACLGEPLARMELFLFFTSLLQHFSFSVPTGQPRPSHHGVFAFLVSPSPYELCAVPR
Chain of Beta Secretase enzyme (BACE) (P56817 46-501): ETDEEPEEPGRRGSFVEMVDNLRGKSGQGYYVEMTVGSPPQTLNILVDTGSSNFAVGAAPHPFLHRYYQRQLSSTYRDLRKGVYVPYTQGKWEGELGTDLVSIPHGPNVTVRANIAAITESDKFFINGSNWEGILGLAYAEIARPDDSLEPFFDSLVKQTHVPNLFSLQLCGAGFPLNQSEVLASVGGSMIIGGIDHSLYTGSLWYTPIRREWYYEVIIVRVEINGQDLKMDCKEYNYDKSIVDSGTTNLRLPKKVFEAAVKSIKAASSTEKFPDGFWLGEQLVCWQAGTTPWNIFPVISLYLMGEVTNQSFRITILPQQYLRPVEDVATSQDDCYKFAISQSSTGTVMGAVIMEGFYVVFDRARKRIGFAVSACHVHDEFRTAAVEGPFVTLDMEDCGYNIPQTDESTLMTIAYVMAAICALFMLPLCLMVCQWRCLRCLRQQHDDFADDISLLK
Chain of CYP3A4 (CYP3A) (P08684 2-503): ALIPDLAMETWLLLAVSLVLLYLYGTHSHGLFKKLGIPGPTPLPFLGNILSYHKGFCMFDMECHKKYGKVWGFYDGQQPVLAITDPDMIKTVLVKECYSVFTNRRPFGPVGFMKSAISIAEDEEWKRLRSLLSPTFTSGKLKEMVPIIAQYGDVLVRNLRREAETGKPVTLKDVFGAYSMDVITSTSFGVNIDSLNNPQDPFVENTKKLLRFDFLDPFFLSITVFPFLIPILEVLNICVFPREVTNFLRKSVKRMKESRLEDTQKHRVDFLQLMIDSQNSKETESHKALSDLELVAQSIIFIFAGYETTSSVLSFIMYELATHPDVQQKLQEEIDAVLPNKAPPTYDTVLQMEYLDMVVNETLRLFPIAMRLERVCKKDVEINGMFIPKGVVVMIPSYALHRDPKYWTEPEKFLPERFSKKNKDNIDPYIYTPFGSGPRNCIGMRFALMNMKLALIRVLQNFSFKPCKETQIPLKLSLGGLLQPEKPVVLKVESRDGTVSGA

| Compound | pIC50 [1] | pIC50 [2] | IC50 ([3]; HEK293, cell-based assay, IC50's in uM) | IC50 ([4]; BACE enzyme assay, IC50's in uM) | RLM [5] | HLM [6] | pIC50 [3] | pIC50 [4] |
| --- | --- | --- | --- | --- | --- | --- | --- | --- |
| C#Cc1cc(F)cc(C[C@H](NC(=O)COC)[C@H](O)CN[C@H]2CC3(CCC3)Oc3ncc(CC(C)C)cc32)c1 [Example 856, N-((1S,2R)-1-(3-ethynyl-5-fluorobenzyl)-2-hydroxy-3-(((4′S)-6′-(2-methylpropyl)-3′,4′-dihydrospiro[cyclobutane-1,2′-pyrano[2,3-b]pyridin]-4′-yl)amino)propyl)-2-methoxyacetamide] | 6.82 | 6.00 | 0.009 µM | 0.002 µM | 78 µL/min/mg | 63 µL/min/mg | – | – |
| C[C@@H](O)C(=O)N[C@@H](Cc1ccc(F)cc1)[C@H](O)CN[C@H]1CC2(CCC2)Oc2ncc(CC(C)(C)C)cc21 [compound 442] | 6.12 | 5.17 | – | – | 150.333 µL/min/mg | 117.333 µL/min/mg | 7.80 | 7.89 |
| CO[C@H](C)C(=O)N[C@@H](Cc1ccc2c(c1)OCO2)[C@H](O)CN[C@H]1CC2(CCC2)Oc2c1cc(CC(C)(C)C)nc2N(C)C [compound 444] | 5.12 | 5.03 | – | – | 662 µL/min/mg | 399 µL/min/mg | 6.11 | 6.53 |
| COCC(=O)N[C@@H](Cc1ccc2c(c1)OCO2)[C@H](O)CN[C@H]1CC2(CCC2)Oc2ncc(CCC(F)(F)F)cc21 [compound 445] | 6.70 | 5.39 | – | – | 121 µL/min/mg | 24 µL/min/mg | 6.21 | 6.12 |
| COCC(=O)N[C@@H](Cc1ccc2c(c1)OCO2)[C@H]1CN([C@H]2CC3(CCC3)Oc3ncc([C@H](F)C(C)(C)C)cc32)C(=O)O1 [compound 446] | 6.70 | 5.92 | – | – | 106 µL/min/mg | 150 µL/min/mg | < 5.00 | 5.20 |
| CC(C)(C)Cc1cnc2c(c1)[C@@H](NC[C@@H](O)[C@H](Cc1ccc3c(c1)OCO3)NC(=O)[C@H]1CCC(=O)C1)CC1(CCC1)O2 [compound 450] | 6.40 | 5.07 | – | – | 170 µL/min/mg | 76 µL/min/mg | 6.74 | 6.82 |
| COCC(=O)N[C@@H](Cc1ccc(F)cc1)[C@H](O)CN[C@H]1CC2(CCC2)Oc2c1cc(CC(C)(C)C)nc2-c1nccs1 [compound 451] | 6.22 | 5.03 | – | – | 682 µL/min/mg | 248 µL/min/mg | 6.57 | 7.72 |
| CO[C@H](C)C(=O)N[C@@H](Cc1ccc2c(c1)OCO2)[C@H](O)CN[C@H]1CC2(CCC2)Cc2sc(CC(C)(C)C)cc21 [compound 455] | 5.59 | 5.26 | – | – | 201 µL/min/mg | 211 µL/min/mg | 6.64 | 7.31 |
| CO[C@@H](C)C(=O)N[C@@H](Cc1ccc2c(c1)OCO2)[C@H](O)CN[C@H]1CC2(CCC2)Cc2sc(CC(C)(C)C)cc21 [compound 456] | 6.05 | 5.51 | – | – | 97 µL/min/mg | 74 µL/min/mg | 6.14 | 6.44 |
| CC(=O)C(C)(C)C(=O)N[C@@H](Cc1ccc2c(c1)OCO2)[C@H](O)CN[C@H]1CC2(CCC2)Oc2ncc(CC(C)(C)C)cc21 [compound 457] | 7.00 | 5.62 | – | – | 90 µL/min/mg | 44 µL/min/mg | 6.04 | 6.10 |
